Assay results: PMC11946679 (Toxics, 2025)
Read-outs that look alike come from different tables or passages of the source.

Legend:
[1] = tested on: human peripheral blood lymphocytes; type: cell-based; details: 3 h
Description: While screening microscope preparations to determine trends in the levels of the main CBMN assay descriptors, nonviable cells were also simultaneously counted on the same slides. Their discrimination was based on the specific morphological features typical for apoptosis or necrosis. It is well known that the biological significance of these phenomena differs deeply, and that the determination of the predominant type of cell death represents a very important issue in each experimental setting.
For each experimental group, we also calculated the ratio between the recorded number of nonviable cells and the cells in apoptosis (Table 5). According to reference, a ratio ≤ 1 means a prevalence of apoptotic events that induce cell death, while a ratio > 1 indicates the acute toxicity of the tested substance that promotes necrosis.

[2] = tested on: human peripheral blood lymphocytes; experiment: CBMN cytome assay: lymphocyte proliferation (M1-M4, CBPI, RI); type: cell-based; details: 3 h
Experimental: On the same slides, parameters of cell proliferation and cytotoxicity were also evaluated, in line with the OECD protocol.

human lymphocytes = tested on: human lymphocytes; set-up: method as in PMID 27461151; details: galangin at 10-20,000 μmol/L; cited from earlier work
[3] = 1× + IRI 9.0 mg/L, propolis 1.36 mg/L, galangin 0.02 mg/L
[4] = 5× + IRI 9.0 mg/L, propolis 6.8 mg/L, galangin […]
[5] = 10× + IRI 9.0 mg/L, propolis 13.6 mg/L, galangin 0.22 mg/L
[6] = scored along with 4000 binucleated cells, 1× + IRI 9.0 mg/L, propolis 1.36 mg/L, galangin 0.02 mg/L
[7] = scored along with 4000 binucleated cells, 5× + IRI 9.0 mg/L, propolis 6.8 mg/L, galangin […]
[8] = scored along with 4000 binucleated cells, 10× + IRI 9.0 mg/L, propolis 13.6 mg/L, galangin 0.22 mg/L
[9] = 1× alone, propolis 1.36 mg/L, galangin 0.02 mg/L
[10] = 5× alone, propolis 6.8 mg/L, galangin […]
[11] = 10× alone, propolis 13.6 mg/L, galangin 0.22 mg/L

O=c1c(O)c(-c2ccccc2)oc2cc(O)cc(O)c12 [Galangin]
Ratio (nonviable cells and cells in apoptosis) [1, 3]: 0.5
Ratio (nonviable cells and cells in apoptosis) [1, 4]: 0.5
Ratio (nonviable cells and cells in apoptosis) [1, 5]: 0.6
Ratio (nonviable cells and cells in apoptosis) ([1]; male, human, 0.02 mg/L): 0.5
Total No. of Cells in Apoptosis ([1]; male, human, 0.02 mg/L): 7
Total No. of Nonviable Cells ([1]; male, human, 0.02 mg/L): 14
Ratio (nonviable cells and cells in apoptosis) ([1]; male, human, 0.22 mg/L): 0.7
Total No. of Cells in Apoptosis ([1]; male, human, 0.22 mg/L): 8
Total No. of Nonviable Cells ([1]; male, human, 0.22 mg/L): 12
Total No. of Cells in Apoptosis [1, 6]: 28
Total No. of Nonviable Cells [1, 6]: 52
Total No. of Cells in Apoptosis [1, 7]: 23
Total No. of Nonviable Cells [1, 7]: 42
Total No. of Cells in Apoptosis [1, 8]: 19
Total No. of Nonviable Cells [1, 8]: 34
% of Cells with 1 to 4 Nuclei M1 [2, 3]: 24.5 ^↑L %
% of Cells with 1 to 4 Nuclei M2 [2, 3]: 72.3 ^H %
% of Cells with 1 to 4 Nuclei M3 [2, 3]: 1.4 ^↓ %
% of Cells with 1 to 4 Nuclei M4 [2, 3]: 1.8 ^↓ %
CBPI [2, 3]: 1.788
Replication Index (%) [2, 3]: 80.1%
% of Cells with 1 to 4 Nuclei M1 [2, 9]: 13.4%
% of Cells with 1 to 4 Nuclei M2 [2, 9]: 74.7%
% of Cells with 1 to 4 Nuclei M3 [2, 9]: 4.0%
% of Cells with 1 to 4 Nuclei M4 [2, 9]: 7.9%
CBPI [2, 9]: 1.986
Replication Index (%) [2, 9]: 100.3%
% of Cells with 1 to 4 Nuclei M1 [2, 4]: 22.6 ^↑L %
% of Cells with 1 to 4 Nuclei M2 [2, 4]: 74.2 ^H %
% of Cells with 1 to 4 Nuclei M3 [2, 4]: 1.6 ^↓ %
% of Cells with 1 to 4 Nuclei M4 [2, 4]: 1.6 ^↓ %
CBPI [2, 4]: 1.806
Replication Index (%) [2, 4]: 82.0%
% of Cells with 1 to 4 Nuclei M1 [2, 10]: 13.3%
% of Cells with 1 to 4 Nuclei M2 [2, 10]: 76.9 ^↑ %
% of Cells with 1 to 4 Nuclei M3 [2, 10]: 3.3 ^↓ %
% of Cells with 1 to 4 Nuclei M4 [2, 10]: 6.5%
CBPI [2, 10]: 1.967
Replication Index (%) [2, 10]: 98.3%
% of Cells with 1 to 4 Nuclei M1 [2, 5]: 23.1 ^↑L %
% of Cells with 1 to 4 Nuclei M2 [2, 5]: 74.6 ^H %
% of Cells with 1 to 4 Nuclei M3 [2, 5]: 1.0 ^↓L %
% of Cells with 1 to 4 Nuclei M4 [2, 5]: 1.3 ^↓ %
CBPI [2, 5]: 1.792
Replication Index (%) [2, 5]: 80.5%
% of Cells with 1 to 4 Nuclei M1 [2, 11]: 10.8 ^↓ %
% of Cells with 1 to 4 Nuclei M2 [2, 11]: 79.0 ^↑ %
% of Cells with 1 to 4 Nuclei M3 [2, 11]: 4.0%
% of Cells with 1 to 4 Nuclei M4 [2, 11]: 6.2%
CBPI [2, 11]: 1.995
Replication Index (%) [2, 11]: 101.2%
genotoxicity (human lymphocytes): not genotoxic per se
